Among the data in ChEMBL document CHEMBL4312011, “Synthesis and biological evaluation of triterpenoid thiazoles derived from betulonic acid, dihydrobetulonic acid, and ursonic acid” (Eur J Med Chem, 2020) are IC50 values, retold here.

One test has as its system MRC5. Kind of test: Cytotoxicity against human MRC5 cells incubated for 72 hrs by MTS assay. Format: cell-based. The following applies: MRC5, 72 h.
The subject of a further test is U2OS. Kind of test: Cytotoxicity against human U2OS cells incubated for 72 hrs by MTS assay. The format is functional, cell-based. For orientation: Formazan colour is commonly taken as a measure of viable cells.
For another test, the system named is BJ. Put plainly: Cytotoxicity against human BJ cells incubated for 72 hrs by MTS assay. Format: cell-based.
Another test relates to A549. Kind of test: Cytotoxicity against human A549 cells incubated for 72 hrs by MTS assay. Format: functional, cell-based. The following applies: A549, 72 h.
The test system of another test is K562. Put plainly: Cytotoxicity against human K562 cells incubated for 72 hrs by MTS assay. The format is functional, cell-based. The following applies: K562, 72 h.
A short description of test [1]: Cytotoxicity against human K562-TAX cells incubated for 72 hrs by MTS assay. Format: functional, cell-based.
Test [2] deals with HCT-116. Put plainly: Cytotoxicity against p53 knockout human HCT116 cells incubated for 72 hrs by MTS assay. The conditions noted are these: HCT-116, 72 h. The format is functional, cell-based.
For test [3], the system named is HCT-116. Kind of test: Cytotoxicity against human HCT116 cells incubated for 72 hrs by MTS assay. Format: functional, cell-based. The following applies: HCT-116, 72 h.
The subject of another test is CCRF-CEM. Kind of test: Cytotoxicity against human CCRF-CEM cells incubated for 72 hrs by MTS assay. Format: functional, cell-based.
A short description of test [4]: Cytotoxicity against human CEM-DNR-bulk cells incubated for 72 hrs by MTS assay. The format is functional, cell-based.

As a reminder, the IC50 is the concentration that inhibits the measured activity by half. A higher IC50 goes with weaker potency.

For `C[C@H]1[C@H](C)CC[C@]2(C(=O)O)CC[C@]3(C)C(=CC[C@@H]4[C@@]5(C)Cc6sc(N7CCCC7)nc6C(C)(C)[C@@H]5CC[C@]43C)[C@H]12`, the IC50 was > 50 µM with MRC5; > 50 µM with U2OS; > 50 µM in the test with BJ; > 50 µM in the test on A549; > 50 µM in the test with K562; 37.5 µM in [1]. For the same molecule, the half-inhibitory concentration (IC50) was > 50 µM with HCT-116 [2], 39 µM in the test on HCT-116 [3], 10.7 µM in the test on CCRF-CEM and 39 µM in [4].

`C[C@H]1[C@H](C)CC[C@]2(C(=O)O)CC[C@]3(C)C(=CC[C@@H]4[C@@]5(C)Cc6sc(N)nc6C(C)(C)[C@@H]5CC[C@]43C)[C@H]12`: the IC50 in the test with MRC5 is > 50 µM; with U2OS, 49.6 µM; with BJ, > 50 µM; in the test on A549 it was > 50 µM; with K562 it was > 50 µM; in test [1], 33.1 µM. Also, the 50% inhibitory concentration (IC50) was > 50 µM in the test with HCT-116 [2], 43 µM in the test on HCT-116 [3], 19 µM in the test on CCRF-CEM and 29.5 µM in test [4].

Regarding `CCN(CC)c1nc2c(s1)C[C@]1(C)[C@H]3CC[C@@H]4[C@H]5[C@H](C(C)C)CC[C@]5(C(=O)O)CC[C@@]4(C)[C@]3(C)CC[C@H]1C2(C)C`, the half-inhibitory concentration (IC50) was > 50 µM in the test on MRC5; 45.8 µM in the test on U2OS; > 50 µM in the test on BJ; > 50 µM in the test with A549; 16.3 µM in the test with K562; > 50 µM in [1]. Further, the concentration for half-maximal inhibition (IC50) was > 50 µM in the test with HCT-116 [2], > 50 µM in the test on HCT-116 [3], 19.7 µM in the test with CCRF-CEM and > 50 µM in test [4].

In the case of `CCN(CC)c1nc2c(s1)C[C@]1(C)[C@H]3CC=C4[C@@H]5[C@@H](C)[C@H](C)CC[C@]5(C(=O)O)CC[C@@]4(C)[C@]3(C)CC[C@H]1C2(C)C`, the IC50 (in the test with MRC5; with U2OS; with BJ; with A549; in the test on K562; in test [1]) was > 50 µM in each case. Further, the IC50 with HCT-116 [2] is > 50 µM; with HCT-116 [3], 41.3 µM; with CCRF-CEM, 26.6 µM; in test [4], > 50 µM.

Regarding `C=C(C)[C@@H]1CC[C@]2(C(=O)O)CC[C@]3(C)[C@H](CC[C@@H]4[C@@]5(C)Cc6sc(N(CC)CC)nc6C(C)(C)[C@@H]5CC[C@]43C)[C@@H]12`, the IC50 is 23.3 µM in the test with MRC5; > 50 µM in the test on U2OS; > 50 µM in the test on BJ; > 50 µM in the test on A549; 29.5 µM with K562; 46.8 µM in [1]. The IC50 in the test on HCT-116 [2] was 31.6 µM; with HCT-116 [3], > 50 µM; in the test with CCRF-CEM, 8.5 µM; in test [4] it was > 50 µM.

For `C=C(C)[C@@H]1CC[C@]2(C(=O)O)CC[C@]3(C)[C@H](CC[C@@H]4[C@@]5(C)Cc6sc(N7CCCCC7)nc6C(C)(C)[C@@H]5CC[C@]43C)[C@@H]12`, the half-inhibitory concentration (IC50) with MRC5 was 50 µM; in the test on U2OS, > 50 µM; in the test with BJ it was > 50 µM; with A549, > 50 µM; in the test on K562, 35.9 µM; in [1], > 50 µM. The IC50 in the test with HCT-116 [2] was > 50 µM; in the test on HCT-116 [3], > 50 µM; in the test on CCRF-CEM, 9.3 µM; in [4] it was > 50 µM.

For `C[C@H]1[C@H](C)CC[C@]2(C(=O)O)CC[C@]3(C)C(=CC[C@@H]4[C@@]5(C)Cc6sc(N7CCN(C)CC7)nc6C(C)(C)[C@@H]5CC[C@]43C)[C@H]12`, the half-inhibitory concentration (IC50) (in the test on MRC5; in the test with U2OS; in the test with BJ; in the test on A549; in the test on K562; in [1]) was > 50 µM throughout. In addition, the IC50 with HCT-116 [2] was > 50 µM; in the test on HCT-116 [3] it was > 50 µM; in the test with CCRF-CEM, 47.6 µM; in [4], > 50 µM.

With `C[C@H]1[C@H](C)CC[C@]2(C(=O)O)CC[C@]3(C)C(=CC[C@@H]4[C@@]5(C)Cc6sc(N7CCCCC7)nc6C(C)(C)[C@@H]5CC[C@]43C)[C@H]12`, the half-inhibitory concentration (IC50) (in the test with MRC5; with U2OS; in the test with BJ; in the test with A549; with K562; in test [1]) was > 50 µM in each case. In addition, the IC50 in the test with HCT-116 [2] was > 50 µM; with HCT-116 [3], > 50 µM; in the test on CCRF-CEM it was 22 µM; in test [4], > 50 µM.

Consider `C=C(C)[C@@H]1CC[C@]2(C(=O)O)CC[C@]3(C)[C@H](CC[C@@H]4[C@@]5(C)CCC(=O)C(C)(C)[C@@H]5CC[C@]43C)[C@@H]12` [BETUNOLIC ACID], for which the half-maximal inhibitory concentration (IC50) in the test with MRC5 came to 29.5 µM; with U2OS, 38 µM; with BJ, 39.5 µM; in the test with A549, 40 µM; with K562 it was 13.6 µM; in [1] it was 14.9 µM. Also, the IC50 in the test on HCT-116 [2] amounted to 49.4 µM; in the test with HCT-116 [3] it was 38.1 µM; in the test on CCRF-CEM, 8.4 µM; in test [4], 11.2 µM.

As for `C=C(C)[C@@H]1CC[C@]2(C(=O)O)CC[C@]3(C)[C@H](CC[C@@H]4[C@@]5(C)Cc6sc(N7CCOCC7)nc6C(C)(C)[C@@H]5CC[C@]43C)[C@@H]12`, the IC50 with MRC5 is > 50 µM; in the test with U2OS it was > 50 µM; in the test with BJ it was > 50 µM; in the test with A549, > 50 µM; in the test with K562, 11.2 µM; in [1], > 50 µM. Besides, the 50% inhibitory concentration (IC50) is > 50 µM with HCT-116 [2], > 50 µM in the test with HCT-116 [3], 7.2 µM with CCRF-CEM and > 50 µM in test [4].

Consider `C[C@H]1[C@H](C)CC[C@]2(C(=O)O)CC[C@]3(C)C(=CC[C@@H]4[C@@]5(C)CCC(=O)C(C)(C)[C@@H]5CC[C@]43C)[C@H]12` [URSONIC ACID], for which the IC50 is > 50 µM in the test with MRC5; > 50 µM in the test with U2OS; > 50 µM with BJ; > 50 µM with A549; > 50 µM with K562; 35.5 µM in test [1]. Moreover, the 50% inhibitory concentration (IC50) in the test with HCT-116 [2] was > 50 µM; with HCT-116 [3], 49.7 µM; in the test on CCRF-CEM, 10.4 µM; in test [4], 34 µM.

In the case of `C=C(C)[C@@H]1CC[C@]2(C(=O)O)CC[C@]3(C)[C@H](CC[C@@H]4[C@@]5(C)CC(Br)C(=O)C(C)(C)[C@@H]5CC[C@]43C)[C@@H]12` (stereo not given in full), the 50% inhibitory concentration (IC50) in the test on MRC5 worked out at 20.4 µM; in the test with U2OS, 23.4 µM; with BJ, 33.5 µM; in the test with A549 it was 24 µM; with K562, 35.5 µM; in test [1], 23.5 µM. Moreover, the IC50 was 32.7 µM with HCT-116 [2], 31.1 µM with HCT-116 [3], 3 µM in the test on CCRF-CEM and 17.9 µM in [4].

As for `CC1(C)CC[C@]2(C(=O)O)CC[C@]3(C)C(=CC[C@@H]4[C@@]5(C)CCC(=O)C(C)(C)[C@@H]5CC[C@]43C)[C@@H]2C1` [OLEANONIC ACID], the IC50 was > 50 µM with MRC5; 48.5 µM in the test on U2OS; > 50 µM with BJ; 49.5 µM in the test on A549; > 50 µM in the test on K562; 21.5 µM in test [1]. In addition, the IC50 in the test on HCT-116 [2] is > 50 µM; in the test with HCT-116 [3], 45.1 µM; in the test with CCRF-CEM, 15.1 µM; in test [4], 17.4 µM.

On to `C[C@H]1[C@H](C)CC[C@]2(C(=O)O)CC[C@]3(C)C(=CC[C@@H]4[C@@]5(C)Cc6sc(N7CCOCC7)nc6C(C)(C)[C@@H]5CC[C@]43C)[C@H]12`, for which the IC50 in the test on MRC5 is > 50 µM; in the test with U2OS, 29.1 µM; with BJ, > 50 µM; with A549 it was 28.8 µM; with K562, 8.6 µM; in test [1] it was 29.7 µM. The IC50 in the test on HCT-116 [2] amounted to 37.9 µM; in the test with HCT-116 [3], 23.6 µM; with CCRF-CEM, 8.5 µM; in test [4] it was 23.8 µM.

Consider `CC(C)[C@@H]1CC[C@]2(C(=O)O)CC[C@]3(C)[C@H](CC[C@@H]4[C@@]5(C)CCC(=O)C(C)(C)[C@@H]5CC[C@]43C)[C@@H]12` [DIHYDROBETULONIC ACID], for which the IC50 with MRC5 is > 50 µM; in the test on U2OS, 27.5 µM; in the test on BJ, > 50 µM; in the test on A549, 22.2 µM; in the test with K562, 11.6 µM; in [1], 11.1 µM. Besides, the 50% inhibitory concentration (IC50) stood at 36.4 µM in the test on HCT-116 [2], 33.5 µM in the test with HCT-116 [3], 6.2 µM with CCRF-CEM and 48.3 µM in test [4].

With `CC(C)[C@@H]1CC[C@]2(C(=O)O)CC[C@]3(C)[C@H](CC[C@@H]4[C@@]5(C)CC(Br)C(=O)C(C)(C)[C@@H]5CC[C@]43C)[C@@H]12` (stereo not given in full), the half-maximal inhibitory concentration (IC50) came out at 8 µM in the test on MRC5; 10 µM in the test on U2OS; 21.8 µM in the test on BJ; 15.2 µM in the test with A549; 0.7 µM with K562; 5.1 µM in test [1]. The IC50 in the test on HCT-116 [2] amounted to 5.2 µM; in the test with HCT-116 [3], 1 µM; in the test on CCRF-CEM it was 3.1 µM; in [4], 15.6 µM.

Regarding `C[C@H]1[C@H](C)CC[C@]2(C(=O)O)CC[C@]3(C)C(=CC[C@@H]4[C@@]5(C)Cc6sc(NC7CCCCC7)nc6C(C)(C)[C@@H]5CC[C@]43C)[C@H]12`, the IC50 (in the test with MRC5; in the test with U2OS; with BJ; in the test on A549; with K562; in test [1]) was > 50 µM in each case. The IC50 in the test on HCT-116 [2] was > 50 µM; with HCT-116 [3], > 50 µM; with CCRF-CEM, 19.4 µM; in [4], > 50 µM.
